Source: article PMC11249646, “Small-Molecule Disruptors of the Interaction between Calcium- and Integrin-Binding Protein 1 and Integrin αIIbβ3 as Novel Antiplatelet Agents” (ACS Pharmacology & Translational Science, 2024)
pIC50: −log10 of the molar value. Where two headings read alike, the source gives them in different places.

Target: T1, CIB1 and αIIb interaction (CIB1-GST : F-αIIb peptide) (Homo sapiens, UniProt Q99828)
T1 construct: made in house; host or cells: BL-21 plus RIL cells (E. coli)
T1 sequence (Q99828 1-191): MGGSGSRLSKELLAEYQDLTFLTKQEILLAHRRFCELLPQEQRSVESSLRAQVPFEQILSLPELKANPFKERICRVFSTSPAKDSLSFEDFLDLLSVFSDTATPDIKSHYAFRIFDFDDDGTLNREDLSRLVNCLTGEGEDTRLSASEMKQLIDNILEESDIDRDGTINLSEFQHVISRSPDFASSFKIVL
Assay: FP assay, 1536-well qHTS format (primary and confirmatory screen)
Type: binding
Details: for Efficacy (%): negative = inhibition; for Curve Class: negative sign = inhibitory curve; for pIC50: read-out: IC50

[1] = qHTS primary screen hits, Table S2
[2] = qHTS primary screen hits, Table S2, several classes where COUNT > 1
[3] = qHTS primary screen of LOPAC/NPACT libraries

Row | SMILES | Efficacy (%) [1] | Curve Class [2] | pIC50 [1] | other results
1 | C=CCNc1oc(-c2ccc(F)cc2)nc1C#N.O=C(O)C(F)(F)F [NCGC00183411-01] | -27% | -2.4 | 4.30 | 
2 | CN(NC(=O)CC(=O)NN(C)C(=S)c1ccccc1)C(=S)c1ccccc1 [NCGC00183656-09] |  |  |  | Efficacy (%) [3]: -33%; Curve Class [3]: -2.4; pIC50 [3]: 4.45
3 | CC(=O)Nc1sc2c(c1-c1nc3ccccc3s1)CCN(C(C)C)C2 [NCGC00183664-03] | -54% | -2.2 | 4.30 | 
4 | CC(=O)NC(c1ccco1)c1cc(Br)c2cccnc2c1O.O=C(O)C(F)(F)F (stereo not drawn) [NCGC00183684-06] | -40% | -2.2 | 4.30 | 
5 | CC(=O)NC(C)c1cc(Cl)c2cccnc2c1O (stereo not drawn) [NCGC00183686-01] | -34% | -2.4 | 4.35 | 
6 | CCC(=O)NC(c1ccco1)c1cc(Br)c2cccnc2c1O (stereo not drawn) [NCGC00183688-01] | -28% |  | 4.25 | Curve Class [1]: -2.4
7 | CC(=O)NC(c1ccco1)c1cc(F)c2cccnc2c1O (stereo not drawn) [NCGC00183702-01] | -24% |  | 4.10 | Curve Class [1]: -2.4
8 | CC(=O)NC(c1ccco1)c1cc(Cl)c2ccc(N(C)C)nc2c1O (stereo not drawn) [NCGC00183714-01] | -39% | -2.2 | 4.30 | 
9 | CN(C)CCCNc1cc(O)c2ncccc2c1.O=C(O)C(F)(F)F [NCGC00183792-01] | -32% |  | 4.25 | Curve Class [1]: -2.4
10 | O=C(O)C(F)(F)F.Oc1cc(NCCN2CCOCC2)cc2cccnc12 [NCGC00183799-01] | -45% | -2.2 | 4.30 | 
11 | CN(C)CCCNC(=O)c1ccc(-c2cc(O)c3ncccc3c2)cc1 [NCGC00183808-07] | -38% |  | 4.52 | 
12 | Nc1ccn(C2CO[C@H](CO)O2)c(=O)n1 (stereo partly drawn) [NCGC00183848-01] | -100% | -3 | 4.40 | 
13 | CC(C)N1CCc2c(sc(NC(=O)Cc3ccccc3)c2-c2nc3ccccc3s2)C1.O=C(O)C(F)(F)F [NCGC00184841-01] | -104% |  | 4.55 | Curve Class [1]: -2.1
14 | O=C(O)C(F)(F)F.O=S(=O)(Nc1ccc(O)c2ncccc12)c1ccccc1F [NCGC00184887-02] | -48% | -3 | 4.10 | 
15 | C#CCCC(=O)Nc1sc2c(c1-c1nc3ccccc3s1)CCN(C(C)C)C2.O=C(O)C(F)(F)F [NCGC00185086-01] | -24% |  | 5.46 | Curve Class [1]: -1.4
16 | O=C(O)C(F)(F)F.c1nc(NCCc2c[nH]cn2)c2ccc(-c3ccc4c(c3)OCO4)cc2n1 [NCGC00185971-01] | -28% | -2.4 | 4.10 | 
17 | Cc1ccc(O)c(N=Nc2ccccc2)n1 [NCGC00185991-01] |  |  |  | Efficacy (%) [3]: -14%; Curve Class [3]: -1.2; pIC50 [3]: 5.74
18 | O=[N+]([O-])/C=C/c1ccc2c(c1)OCO2 [NCGC00186015-01] |  |  |  | Efficacy (%) [3]: -24%; Curve Class [3]: -2.2; pIC50 [3]: 4.25
19 | O=C1c2ccccc2C(=O)c2c(NCCc3ccc(O)cc3)ccc(NCCc3ccc(O)cc3)c21 [NCGC00186017-01] | -32% |  | 4.50 | Curve Class [1]: -2.2
20 | CCOC(=O)C1=C(C)NC(C)=C(C(=O)OCC)C1c1c(F)c(F)c(F)c(F)c1F [NCGC00186027-01] |  |  |  | Efficacy (%) [3]: -13%; Curve Class [3]: -1.2; pIC50 [3]: 5.20
21 | Cl.O=C(CCCCCN1CCN(c2ccccc2-c2ccccc2)CC1)NC1CCCc2ccccc21 (stereo not drawn) [NCGC00186032-01] |  |  |  | Efficacy (%) [3]: -13%; Curve Class [3]: -1.2; pIC50 [3]: 4.60
22 | O=C(O)C(F)(F)F.O=C1CCCC2=C1C1(CCCCC1)N=C(Nc1nc3ccccc3o1)N2 [NCGC00186052-01] | -23% | -2.4 | 4.25 | 
23 | COc1cc(O)c2c(c1)/C=C/C[C@H](O)[C@H](O)C(=O)/C=C\C[C@H](C)OC2=O [NCGC00186421-07] |  |  |  | Efficacy (%) [3]: -26%; Curve Class [3]: -2.4; pIC50 [3]: 4.60
24 | Cc1ccc(NS(=O)(=O)c2ccc3[nH]c(=O)[nH]c3c2)cc1C.O=C(O)C(F)(F)F [NCGC00187759-01] | -68% |  | 5.40 | Curve Class [1]: -2.4
25 | Cl.O=c1c2ccccc2nc2sc(Nc3cccc(N4CCNCC4)c3)nn12 [NCGC00187809-01] | -32% | -2.4 | 4.35 | 

Row | SMILES | Efficacy (%) [1] | Curve Class [2] | pIC50 [1] | other results
26 | CN(C)c1cccc(N2CCN(c3nn4c(=O)c5ccccc5nc4s3)CC2)c1.Cl [NCGC00187811-01] | -35% |  | 4.30 | Curve Class [1]: -2.4
27 | CN(C)c1cccc(-c2cnc(N3CCC(c4ncc[nH]4)CC3)s2)c1.O=C(O)C(F)(F)F [NCGC00187899-01] | -34% |  | 4.10 | Curve Class [1]: -2.4
28 | CC(=O)NC(c1cccs1)c1cc(Br)c2cccnc2c1O (stereo not drawn) [NCGC00188370-02] |  |  |  | Efficacy (%) (qHTS FP screen hits, Table S2): -40%; pIC50 (qHTS FP screen hits, Table S2): 4.34
29 | O=C(Nc1ccc2ccccc2c1)Nc1nnc(-c2ccccn2)s1.O=C(O)C(F)(F)F [NCGC00188528-01] | -30% | -2.4 | 4.25 | 
30 | Cc1nc(CNc2ncnc3ccc(-c4ccc(CO)o4)cc23)cs1.O=C(O)C(F)(F)F [NCGC00188652-01] | -35% | -2.4 | 4.25 | 
31 | Cc1ccc(CNc2ncnc3ccc(-c4ccc(CO)o4)cc23)o1.O=C(O)C(F)(F)F [NCGC00188654-01] | -45% |  | 4.30 | Curve Class [1]: -2.2
32 | O=C(O)C(F)(F)F.OCc1ccc(-c2ccc3ncnc(NCCc4c[nH]cn4)c3c2)o1 [NCGC00188669-01] | -40% | -2.4 | 4.35 | 
33 | O=C(O)C(F)(F)F.OCc1ccc(-c2ccc3ncnc(NCc4ncc[nH]4)c3c2)o1 [NCGC00188670-01] | -33% | -2.4 | 4.25 | 
34 | CCc1nnc(Nc2ncnc3scc(-c4cccc(S(C)(=O)=O)c4)c23)s1.O=C(O)C(F)(F)F [NCGC00188733-01] | -31% | -2.2 | 4.30 | 
35 | Cl.O=c1cc(CN2CCOCC2)occ1OCCCCCSc1ccnc2cc(C(F)(F)F)ccc12 [NCGC00188866-05] |  |  |  | Efficacy (%) [3]: -26%; Curve Class [3]: -2.4; pIC50 [3]: 4.40
36 | CCC(=O)NC(c1cccs1)c1cc(Cl)c2cccnc2c1O (stereo not drawn) [NCGC00188867-01] | -29% | -2.4 | 4.35 | 
37 | Cc1ccc(CNc2ncnc3ccc(-c4ccc([C@@H](C)O)o4)cc23)o1 [NCGC00189252-01] |  |  |  | Efficacy (%) (qHTS FP screen hits, Table S2): -27%; pIC50 (qHTS FP screen hits, Table S2): 4.90
38 | O=C(O)C(F)(F)F.O=C(O)c1ccc(-c2ccc3ncnc(NCc4cccs4)c3c2)o1 [NCGC00189277-01] | -25% | -2.4 | 4.05 | 
39 | Cc1ccc(N[S+](=O)([O-])c2cc3c(cc2N[C@@H](C)CO)NC(=O)CC3)cc1N[C@@H](C)CO [NCGC00189369-01] | -29% | -2.4 | 4.15 | 
40 | O=C(Nc1ccccc1)c1ccccc1NC(=O)C1CCCCC1 [NCGC00189487-01] | -27% | -2.4 | 4.25 | 
41 | COc1ccc(NC(=O)c2cccs2)cn1.O=C(O)C(F)(F)F [NCGC00229661-01] | -41% | -2.2 | 4.30 | 
42 | O=C1CCCC2=C1C(c1n[nH]cc1Br)N=C(Nc1nc3ccccc3o1)N2 (stereo not drawn) [NCGC00229723-01] | -18% |  | 4.30 | Curve Class [1]: -2.4
43 | Cc1cc(C2N=C(Nc3nc4ccccc4o3)NC3=C2C(=O)CCC3)n[nH]1.O=C(O)C(F)(F)F (stereo not drawn) [NCGC00229726-01] | -26% | -2.4 | 4.25 | 
44 | CC1=C(C(=O)N(C)C)C(c2ccccc2Br)N=C(Nc2nc3ccccc3o2)N1.O=C(O)C(F)(F)F (stereo not drawn) [NCGC00229733-01] | -27% |  | 4.25 | Curve Class [1]: -2.4
45 | CN1CCN(c2ccc(NC(=O)CN(C)Cc3c(O)ccc4ccccc34)cc2)CC1.O=C(O)C(F)(F)F [NCGC00229739-01] | -49% | -3 | 4.05 | 
46 | CC(C)(C)CNc1ncnc2ccc(-c3ccc(CO)o3)cc12.O=C(O)C(F)(F)F [NCGC00238375-01] | -42% | -2.2 | 4.30 | 
47 | O=C(O)C(F)(F)F.OCc1ccc(-c2ccc3ncnc(N4CCOCC4)c3c2)o1 [NCGC00238384-01] | -42% | -2.2 | 4.35 | 
48 | COc1cc(N2CCC(N3CCN(C)CC3)CC2)ccc1Nc1ncc(Cl)c(Nc2ccccc2S(=O)(=O)C(C)C)n1 [NCGC00238453-07] |  |  |  | Efficacy (%) [3]: -24%; Curve Class [3]: -2.4; pIC50 [3]: 4.25
49 | O=C(Nc1ccc(Cl)c(Cl)c1)Nc1nnc(N2CCNCC2)s1.O=C(O)C(F)(F)F [NCGC00238616-01] | -35% | -2.4 | 4.10 | 
50 | Cc1ccc(C)c(SC2=NS(=O)(=O)c3cc(C(=O)Nc4ccc5ncccc5c4)ccc32)c1 [NCGC00238689-01] | -27% |  | 4.35 | Curve Class [1]: -2.4
